From patent US8476455B2, “1-N-phenyl-amino-1h-imidazole derivatives and pharmaceutical compositions containing them” (Laboratoire Theramex, priority 2003, dated 2013)

Tests used:
[1] = tested on: steroid sulfatase; experiment: Anti uterotrophic/anti steroid sulfatase activity in vivo; parameters: species or system rat; settings: ovariectomized Wistar female rats, E1S 50 μg/kg/day s.c., oral 1 mg/kg/day for 4 days; % of inhibition of the E1S induced stimulation
Experimental: Wistar female rats were ovariectomized and left to rest for 4 weeks. Prior to treatment, the absence of cyclicity was checked by vaginal smears. Animals were supplemented with estrone sulfate (EIS) at 50 μg/kg/day s.c., alone or combined with oral administration of potential sulfatase inhibitors, at 1 mg/kg/day for 4 days. The uteri were removed, freed of adjacent tissue and wet weighed (Table 3).
Estrone sulfatase activity is measured according to the method described by Purohit et al., with slight modifications. Briefly, uteri were thawed, weighed and homogenized. Aliquots of the supernatant were treated with dextran-coated charcoal and assayed for sulfatase. E1S activity is assessed after 30 min of incubation with 5 nM of ^3H-E1S and 20 μM of unlabelled E1S as substrate. Estrone sulfatase activity is expressed as pmol/h/mg protein and reported as percentage of inhibition vs E1S; for uterus weights, results are expressed as % of inhibition of the E1S induced stimulation

[2] = molecular target: T1, human steroid sulfatase (Homo sapiens, UniProt P08842); experiment: Dual aromatase and steroid sulfatase activities in JEG-3 cells: sulfatase readout; format: cell-based; settings: footnote c: dual aromatase and sulfatase activity, nd: not detected, read-out: Sulfatase activity IC50 (nM) ± S.E.M.
T1 construct: The JEG-3 cell line is intrinsically very rich in human estrone sulfatase; endogenous in cells; host or cells: JEG-3 (human placental choriocarcinoma)
T1 sequence (P08842 22-583): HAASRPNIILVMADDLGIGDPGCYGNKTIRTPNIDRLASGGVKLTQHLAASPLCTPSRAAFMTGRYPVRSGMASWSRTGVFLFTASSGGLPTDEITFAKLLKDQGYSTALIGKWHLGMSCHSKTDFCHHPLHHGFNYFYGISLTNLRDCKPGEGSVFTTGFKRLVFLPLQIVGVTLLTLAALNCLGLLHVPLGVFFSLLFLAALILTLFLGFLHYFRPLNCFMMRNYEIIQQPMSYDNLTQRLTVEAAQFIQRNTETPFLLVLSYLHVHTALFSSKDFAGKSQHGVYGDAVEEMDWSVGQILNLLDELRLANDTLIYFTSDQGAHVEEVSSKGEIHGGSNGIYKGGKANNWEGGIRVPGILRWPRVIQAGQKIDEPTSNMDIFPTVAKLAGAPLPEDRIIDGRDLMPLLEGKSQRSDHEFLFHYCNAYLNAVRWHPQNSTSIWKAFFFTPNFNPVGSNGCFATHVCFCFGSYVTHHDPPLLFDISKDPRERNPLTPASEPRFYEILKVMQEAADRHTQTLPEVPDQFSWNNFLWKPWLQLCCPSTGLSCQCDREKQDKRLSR
Experimental: (§1) The JEG-3 cell line is intrinsically very rich in human estrone sulfatase and therefore is a useful biological system to evaluate new steroid sulfatase inhibitors in vitro. Assays were carried out with cells in logarithmic growth phase on 96-well microplates. 24 h before studies, cells were seeded in decomplemented fetal calf serum (dFCS) supplemented medium. The medium was removed 24 h later and cells were rinsed with PBS to eliminate any trace of dFCS. Then, ^3H-E1S was added in dFCS free medium, followed by test compounds at concentrations ranging from 10^−12 M to 10^−5 M. After 4 h of treatment, the medium was transferred into 96-deep-well microplates and centrifuged at 200×g for 10 min to pellet cells before toluene extraction. A fraction of the medium was used for toluene extraction in order to separate the conjugated substrate from non-conjugated products. The radioactivity in the toluene phase was measured by liquid scintillation counting. In parallel, after cell solubilization in a ethylenediamine tetraacetate solution, DNA content was measured by a standard fluorimetric method using the Hoechst 33258 fluorochrome. Finally, estrone sulfatase activity was expressed in pmoles of ^3H-E1+^3H-E2 formed/4 hours/mg DNA and estrone sulfatase inhibition as a percentage of control activity without inhibitor.
(§2) In order to evaluate the inhibitory potency of DASI compounds in parallel on both human aromatase and steroid sulfatase activities, a new in vitro model was set up using JEG-3 cells. The experimental conditions of the steroid sulfatase model previously described was adopted with slight modifications: the presence of the two substrates ^3-HE1S and 1β-^3H-androstenedione into the medium and an incubation period of 2 hours. Results were expressed in pmoles of product formed (^3H-E1+^3H-E2 or ^3H2O)/2 hours/mg DNA (Table 1).

[3] = molecular target: T2, human estrone sulfatase (Homo sapiens, UniProt P08842); experiment: Steroid (estrone) sulfatase activity alone in JEG-3 cells; format: cell-based; settings: footnote b: sulfatase activity alone, nd: not detected, read-out: Sulfatase activity IC50 (nM) ± S.E.M.
T2 construct: The JEG-3 cell line is intrinsically very rich in human estrone sulfatase; endogenous in cells; host or cells: JEG-3 (human placental choriocarcinoma)
T2 sequence (P08842 22-583): T1 sequence (P08842 22-583)
Experimental: as §1

[4] = molecular target: T3, human aromatase (Homo sapiens, UniProt P11511); experiment: Aromatase activity alone, tritiated water method in JEG-3 cells; format: cell-based; settings: footnote a: aromatase activity alone, nd: not detected, read-out: Aromatase activity IC50 (nM) ± S.E.M.
T3 construct: The JEG-3 cell line, derived from a human placental choriocarcinoma, constitutively overexpresses human aromatase; endogenous in cells; host or cells: JEG-3 (human placental choriocarcinoma)
T3 sequence (P11511 1-503): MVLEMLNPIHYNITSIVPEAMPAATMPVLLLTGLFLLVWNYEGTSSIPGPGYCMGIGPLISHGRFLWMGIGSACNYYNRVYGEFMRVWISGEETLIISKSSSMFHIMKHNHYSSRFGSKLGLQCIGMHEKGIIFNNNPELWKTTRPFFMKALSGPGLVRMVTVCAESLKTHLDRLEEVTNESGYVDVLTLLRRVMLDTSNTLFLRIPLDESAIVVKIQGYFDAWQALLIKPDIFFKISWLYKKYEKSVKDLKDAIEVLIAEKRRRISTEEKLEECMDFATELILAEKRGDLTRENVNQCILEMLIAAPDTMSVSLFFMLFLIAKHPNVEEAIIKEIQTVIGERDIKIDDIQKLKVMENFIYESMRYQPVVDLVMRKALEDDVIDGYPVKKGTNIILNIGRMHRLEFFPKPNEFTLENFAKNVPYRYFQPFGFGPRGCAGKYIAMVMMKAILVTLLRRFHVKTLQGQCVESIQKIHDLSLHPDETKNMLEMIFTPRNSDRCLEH
Experimental: The JEG-3 cell line, derived from a human placental choriocarcinoma, constitutively overexpresses human aromatase and represents a relevant model for assaying putative aromatase inhibitors in vitro. Aromatase activity was determined by the tritiated water method. In brief, cells were first seeded into 96-well microplates in decomplemented fetal calf serum (dFCS) supplemented medium. 24 hours later, cells were rinsed and fresh medium containing 1β-^3H-androstenedione as aromatase substrate was added together with test compounds at concentrations ranging from 10^−12 M to 10^−5 M. After 2 hours of incubation, a fraction of the medium was transferred to homologous new 96-well microplates and a dextran-coated charcoal solution was added to each well. Following standing on ice for 10 minutes, microplates were centrifuged (1500 g; 4° C.). All steroids, including the radioactive substrate and the newly biosynthesized estrogens, were adsorbed on charcoal; only ^3H-water specifically formed during aromatisation of 1β-^3H-androstenedione, remained in the supernatant. The radioactivity in the supernatant was measured by liquid scintillation counting. In parallel, cell solubilization was performed in ethylenediamine tetraacetate solution. […] Finally, aromatase activity was expressed in fmoles of ^3H-water formed/2 hours/μg DNA and aromatase inhibition as a percentage of control activity without inhibitor.

[5] = tested on: Ishikawa cells; experiment: Alkaline phosphatase activity in Ishikawa cells (estrogenic potency); format: cell-based
Experimental: Ishikawa cells were plated into 96-well microplates 48 hours before studies. The next day, the medium was replaced by phenol red free medium supplemented with 5% charcoal-stripped dFCS. 24 hours later, the medium was renewed and compounds were added to the plated cells and incubated for an additional four-day period. […] At the end of the incubation period, alkaline phosphatase activity (APase) was assayed by a method involving the hydrolysis of p-nitrophenyl phosphate to p-nitrophenol and spectrophotometric determination of the product at 405 nm.
In brief, the microplates were first rinsed twice with cold phosphate buffered solution and then placed at −80° C. for at least 15 minutes. After thawing at room temperature, 50 μl ice-cold solution containing 5 mM p-nitrophenyl phosphate was added to each well. After a 15 to 60 minute incubation period at room temperature, the intensity of the yellow color generated by the production of p-nitrophenol was measured into each well at 405 nm.
For each tested concentration, APase activity, reflected by absorbance, was first expressed as fold increase over control (FI) and then as percentage of E2 activity (10^-8 M) chosen equal to 100%.

[6] = molecular target: human carbonic anhydrase II (Homo sapiens, UniProt P00918); experiment: Human carbonic anhydrase II activity (p-nitrophenyl acetate, colorimetric); format: biochemical; settings: read-out: Human carbonic anhydrase II activity IC50 (nm) ± S.E.M.
Experimental: Briefly, in this assay, human carbonic anhydrase II catalyses the conversion of p-nitrophenyl acetate into pnitrophenol. The potential inhibitory effect of test compounds was evaluated by colorimetric determination of prnitrophenol produced during the enzymatic reaction. The optical density levels obtained without inhibitor will be referred to as “total activity”. The levels obtained without Inhibitor and without the enzyme will be referred to as “blank” in order to assess any interference with the substrate during the assay (Table 2).

[7] = molecular target: T3, human aromatase; experiment: Dual aromatase and steroid sulfatase activities in JEG-3 cells: aromatase readout; format: cell-based; settings: footnote c: dual aromatase and sulfatase activity, nd: not detected, read-out: Aromatase activity IC50 (nM) ± S.E.M.
Experimental: as §1, with “Assays” for “The JEG-3 cell line is intrinsically very rich in human estrone sulfatase and therefore is a useful biological system to evaluate new steroid sulfatase inhibitors in vitro. Assays”, “In parallel, after cell solubilization in a ethylenediamine tetraacetate solution, DNA content was measured by a standard fluorimetric method using the Hoechst 33258 fluorochrome.” left out
as §2

[8] = tested on: aromatase; experiment: Inhibition of estradiol peak, in vivo aromatase inhibition model; parameters: species or system rat; settings: female rats, 24 hours after one oral administration
Experimental: One hundred IOPS Wistar female rats, weighing 180 to 200 g, were accommodated by four in stainless steel mesh cages. […] Vaginal smears were performed for each animal, each morning, in order to establish the different phases of cycle. […] Starting at 4.00 pm, animals received an oral administration of formulations. 24 hours later, samples of serum were collected and estradiol level were determined as previously described (Table 4).

[9] = tested on: aromatase; settings: 3 μg/kg, 24 hours after one single oral administration in female rats; cited from earlier work

| SMILES | IC50 [3] [nM] | IC50 [4] [nM] | melting point [°C] | other results |
| --- | --- | --- | --- | --- |
| NS(=O)(=O)Oc1ccc2c3c(c(=O)oc2c1)CCCCC3 [6,6,7 COUMATE, 6,6,7-COUMATE, reference compound] | – | – | – | % inhibition (uterus weight) [1]: 81% |
| NS(=O)(=O)Oc1ccc2c(c1)S(=O)(=O)C=C2CC1CCCCCC1 [A*, sulfamic acid, 3-cycloheptylmethylbenzothiophen-6-yl-1,1-dioxide-ester, reference compound] | 2.5 ± 0.5 | – | – | IC50 [2]: 3.6 ± 0.8 nM |
| N#Cc1ccc(N(Cc2ccc(OS(N)(=O)=O)cc2)n2ccnc2)cc1 [Ex 43, Sulfamic acid-4-{[N-(4-cyanophenyl)-N-(1H-imidazol-1yl)amino]methyl}phenyl ester] | ~10 | 0.57 ± 0.16 | 172 | estrogenicity in vitro (in words) [5]: not estrogenic |
| COc1cc(CN(c2ccc(C#N)cc2)n2ccnc2)ccc1OS(N)(=O)=O [Ex 46, Sulfamic acid 2-methoxy-4-{[N-(4-cyanophenyl)-N-(1H-imidazol-1yl)amino]methyl}phenyl ester] | 13.8 ± 2.5 | 0.79 ± 0.26 | 211 | estrogenicity in vitro (in words) [5]: not estrogenic |
| N#Cc1ccc(N(Cc2ccc3c(c2)C=NS(=O)(=O)O3)n2ccnc2)cc1 [Ex 48, 4-[N-[(2,2-dioxido-1,2,3-benzoxathiazin-6-yl)methyl]-N-(1H-imidazol-1-yl)amino]benzonitrile] | 2660 ± 257 | 0.82 ± 0.12 | 180 | – |
| N#Cc1ccc(N(CCOc2ccc(OS(N)(=O)=O)cc2)n2ccnc2)cc1 [Ex 51, Sulfamic acid 4-{2-[N-(4-cyanophenyl)-N-(1H-imidazol-1yl)amino]ethoxy}phenyl ester] | – | – | 174 | IC50 [2]: 597 ± 67.4 nM; IC50 [6]: 6.5 ± 0.9 nM; IC50 [7]: 0.34 ± 0.13 nM |
| CC(C)(C#N)c1cc(Cn2cncn2)cc(C(C)(C)C#N)c1 [anastrozole, reference compound] | – | – | – | % inhibition (estradiol peak) [8]: 56%; estradiol levels (in words) [9]: significantly inhibits |
